Source: US20090182011A1, “Chimeric Nitrate Esters and Use of the Same in a Treatment for Depression” (UNIVERSITY OF ILLINOIS CHICAGO, priority 2008, published 2009)

Experiments:
male C57BL/6 mice = experiment: Step-through passive avoidance (STPA) task, scopolamine induced memory impairment; conditions: for effect on 48 h retention (scopolamine induced long term memory impairment): 4.5 umole/kg i.p. 20 minutes before training (NO-fluoxetine 2.05 mg/kg, fluoxetine 1.54 mg/kg), scopolamine 1 mg/kg
Procedure: Step-through passive avoidance (STPA) task This test was performed on male C57BL/6 mice (from Charles River's Laboratories), 8-10 weeks of age and weighing 22-27 g. The mice were kept under standardized laboratory conditions (temperature 21±1° C., humidity 50-60%) with free access to food and tap water in a room with a natural light-dark cycle.
Avoidance experiment was divided into 3 phases: habituation, training, and retention. The apparatus used consisted of a box divided into 2 compartments, an illuminated compartment adjacent to a dark compartment, the floor consisted of an electric grid controlled by a switch that can deliver an electric shock only to the dark compartment. A doorway was located at floor level in the center of the connecting wall; the door was closed once the mouse enters the dark compartment. The habituation phase was performed by individually putting the mice in the light compartment; the door was closed once the mouse enters the dark compartment (without an electric shock), left there for 15 seconds before being returned to its cage. The time (latency) to enter the dark box was recorded for each mouse; only mice scoring less than 30 seconds for three consecutive times were allowed to pass for the training phase. Training phase was performed 2 hours after the habituation phase by individually placing the mice again in the illuminated compartment but an electric shock (0.6 mA for 2 s) was delivered immediately after the mouse entered the dark compartment accompanied by the door closure. Trial was repeated for a maximum of 5 trials or until the mouse remained in the light compartment for 300 seconds in one of the trials. During the training phase, the number of trials and the time (latency) to enter the dark compartment was scored. Mice that entered the dark compartment in the fifth trial in less than 300 seconds were eliminated from the experiment. Forty-eight hours after the training trial, a retention test was conducted in which the same animals were put into the illuminated box and again the latency to enter the dark box was recorded. The retention trial ended when the mouse entered the dark box or 300 s had elapsed, whichever occurred first. Scopolamine (1 mg/kg) dissolved in physiological saline water was administered by i.p. injection 30 minutes before the training phase and drugs dissolved in 25% DMSO were administered by i.p. injection 20 minutes before the training.
The data were statistically evaluated by one way ANOVA, followed by Tukey post-hoc test.

[1] = NOx detection (NO analyzer, Griess assay); conditions: incubated with GSH
Procedure: NOx detection A degassed solution containing NO-fluoxetine (0.5 mM), and cysteine (5 mM) or GSH (5 mM) in 50 mM phosphate buffer (pH 7.4, 1 mL total volume) was incubated for 30 min at 37° C. After 30 min, nitric oxide was detected using an NO analyzer, and nitrite and nitrate was detected using Griess assay.

male Sprague Dawley rats = experiment: Modified forced swimming test; type: in vivo, rat; conditions: 26.5 mg/kg i.p. 23.5, 5 and 1 hour before the test
Procedure: Modified forced swimming test This test was performed using male Sprague Dawley rats weighing 200-250 g. Rats were trained to swim in the water tank for 15 minutes 24 hour before the test. NO-Fluoxetine was administered by i.p. injections 23.5, 5, and 1 hour before the test at a dose of 26.5 mg/kg, which is equimolar to 20 mg/kg fluoxetine. NO-fluoxetine was freshly prepared in an emulsion formed of 5% Tween 80. The test was performed by putting the rats in a water tank consisting of an acrylic cylinder (22 cm diameter, 30 cm water depth, 25° C. water temperature) for 5 minutes. The 5 minute test was divided into 60 blocks of 5 seconds each. The major behavior in each 5 sec block was assigned for the whole block, including climbing, swimming, and immobile. The blocks representing different behaviors were counted.
In vivo NO-fluoxetine (26.5 mg/kg equimolar to 20 mg/kg fluoxetine) given by i.p. injections 23.5, 5, and 1 hour before the test was active in the modified forced swimming test, showing an increase in the swimming behaviour and a decrease in the immobility behaviour. Sub-acute injection of NO-fluoxetine provides sufficient time for the bioactivation of NO-fluoxetine and the subsequent release of fluoxetine.
Values presented as mean±SEM, n=6 per group. The data were statistically evaluated by ANOVA, followed by Turkey post-hoc test.

[2] = NO-fluoxetine bioactivation in rat plasma; type: in vitro ADME; conditions: 0.25 mM substrate, 30 min, 37° C.
Procedure: In plasma A solution containing substrate (0.25 mM) and rat plasma (0.1 mL) was incubated for 30 min at 37° C. The reaction was quenched by addition of acetonitrile and centrifugation for 10 min. The solution was filtered and injected to HPLC.

[3] = NO-fluoxetine bioactivation in rat liver microsomes; type: in vitro ADME; conditions: 0.25 mM substrate, NADPH, 30 min, 37° C.
Procedure: In rat liver microsomes A solution containing substrate (0.25 mM), rat liver microsomes (3 nmol of P450/0.5 mL), and NADPH (2 mM) in 50 mM phosphate buffer (pH 7.4, 0.5 mL total volume) was incubated for 30 min at 37° C. The reaction was quenched by addition of acetonitrile and centrifugation for 10 min. The solution was filtered and injected to HPLC.

[4] = NO-fluoxetine bioactivation in phosphate buffer; type: physicochemical; conditions: 50 mM phosphate buffer solutions pH 7.0, 7.4 and 8.0
Procedure: In Phosphate buffer saline A stock solution of NO-fluoxetine was prepared by dissolving 1 mg of the compound in 100 μL MeOH (21 mM). An aliquot (10 μL) of the stock solution was added to 990 μL of 50 mM phosphate buffer (pH 7.4) at 22° C., and the formation of fluoxetine was monitored by reverse phase HPLC using 4.6 mm×150 mm C18 column at a flow rate of 1.0 mL/min. The mobile phase contained 60% acetonitrile content, which was increased to 90% over 5 min. After the phase was held 90% for 5 min, the acetonitrile was reduced to 60% in 5 min. Formation of fluoxetine in buffers was positively identified by comparing retention time and the LC-MS (electrospary ionization) protonated [M+H]+ molecular ion (m/z 310) of the authentic sample. Fluoxetine formation was monitored every 15 min and percentage of fluoxetine formation was obtained with respect to time. Kinetic experiments were performed in 50 mM phosphate buffer solutions (pH 7.0, pH 7.4, and pH 8.0).
Formation of fluoxetine in buffer was positively identified by comparison to the retention time and the LC-MS (electrospary ionization) protonated [M+H]+ molecular ion (m/z 310) of an authentic fluoxetine sample.
Kinetic studies for the degradation of NO-fluoxetine were performed by monitoring the production of fluoxetine every 15 min in different pH buffer solutions (See FIG. 1).

SMILES | animals that failed to learn the STPA task during the training phase (male C57BL/6 mice; 4.5 umole/kg i.p. 20 minutes before training) | effect on 48 h retention (scopolamine induced long term memory impairment) (male C57BL/6 mice) | nitric oxide release [1] | activity in the modified forced swimming test (male Sprague Dawley rats) | immobility behaviour (male Sprague Dawley rats) | swimming behaviour (male Sprague Dawley rats) | product of reaction with plasma [2] | product of reaction with rat liver microsomes [3] | conversion in buffer [4]
CNCCC(Oc1ccc(C(F)(F)F)cc1)c1ccccc1 (stereo not shown) [fluoxetine] | 5 of 12 and zero | did not have an effect | – | – | – | – | – | – | –
CN(CCC(Oc1ccc(C(F)(F)F)cc1)c1ccccc1)C(=O)SCCO[N+](=O)[O-] (stereo not shown) [NO-fluoxetine] | – | reversed the scopolamine induced long term memory impairment | released nitric oxide | active | decrease | increase | generated fluoxetine as the major product | generated fluoxetine as the major product | converted to fluoxetine
